# Experimental data published in patent US9790169B2, “IDO inhibitors” (BRISTOL-MYERS SQUIBB COMPANY, priority 2015, dated 2017).
# Target: human IDO1 (Homo sapiens, UniProt P14902)
# Assay: Assessment of human IDO-1 inhibitory activity in Hela cells (Interferon-gamma stimulated HeLa cells, Ehrlich reagent, absorbance 490 nm)
# Type: cell-based
# Set-up: endogenous in cells; host or cells: HeLa cells stimulated with interferon-gamma
# Conditions: Hela Human IDO-1 cellular assay
# Outline: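 IDO activity induced by 18 h IFN-γ (human 10 ng/ml or murine 5 ng/ml, final) after 1 h compound pre-treatment of HeLa cells at 37 °C. Supernatant kynurenine detected via Ehrlich reagent absorbance at 490 nm following 3% TCA at 50 °C; IC50 set against no-IFN-γ and untreated-stimulated controls.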
# Chain of human IDO1 (P14902 whole entry): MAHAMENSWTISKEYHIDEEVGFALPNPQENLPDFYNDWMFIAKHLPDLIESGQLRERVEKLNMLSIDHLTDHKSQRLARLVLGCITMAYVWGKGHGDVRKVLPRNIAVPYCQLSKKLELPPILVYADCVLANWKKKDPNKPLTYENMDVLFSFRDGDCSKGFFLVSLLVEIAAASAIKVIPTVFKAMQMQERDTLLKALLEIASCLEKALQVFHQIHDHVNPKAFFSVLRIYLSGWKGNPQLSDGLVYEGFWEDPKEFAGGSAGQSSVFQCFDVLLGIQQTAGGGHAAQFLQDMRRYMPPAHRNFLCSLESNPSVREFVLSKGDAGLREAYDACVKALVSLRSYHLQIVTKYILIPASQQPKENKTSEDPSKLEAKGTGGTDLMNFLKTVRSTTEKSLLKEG
row,SMILES,IC50
1,"CCCN(c1ccc([C@H](CC)CC(=O)O)cc1Nc1cnc(OCC2CC2)nc1)C1CCOCC1 (single isomer, unassigned) [Example 554]",< 5 nM
2,"CCCN(c1ccc([C@H](CC)CC(=O)O)cc1NC(=O)Nc1ccc(Cl)cc1F)C1CCOCC1 (single isomer, unassigned) [Example 555]",< 5 nM
3,"CCCN(c1ccc([C@H](CC)CC(=O)O)cc1NC(=O)Nc1ccc(C#N)cc1)C1CCOCC1 (single isomer, unassigned) [Example 556]",< 50 nM
4,"CCCN(c1ccc(C(CC)CC(=O)O)cc1NC(=O)Nc1ccc(C)cc1)C1CCOCC1 (single isomer, unassigned) [Example 557 Enantiomer 1, 3-(4-(Propyl(tetrahydro-2H-pyran-4-yl)amino)-3-(3-(p-tolyl)ureido)phenyl)pentanoic acid]",< 50 nM
5,"CCCN(c1ccc(C(CC)CC(=O)O)cc1NC(=O)Nc1ccc(C)cc1)C1CCOCC1 (single isomer, unassigned) [Example 557 Enantiomer 2, 3-(4-(Propyl(tetrahydro-2H-pyran-4-yl)amino)-3-(3-(p-tolyl)ureido)phenyl)pentanoic acid]",< 5 nM
6,"CCCN(c1ccc([C@@H](COC)CC(=O)O)cc1Nc1ccc(C#N)cc1)C1CCOCC1 (single isomer, unassigned) [Example 558]",< 5 nM
7,"CCCN(c1ccc([C@@H](COC)CC(=O)O)cc1Nc1cnc(OCC)nc1)C1CCOCC1 (single isomer, unassigned) [Example 559]",< 50 nM
8,"CCCN(c1ccc([C@@H](COC)CC(=O)O)cc1Nc1ccc(OC)nc1)C1CCOCC1 (single isomer, unassigned) [Example 565]",< 50 nM
9,"CCCN(c1ccc([C@@H](COC)CC(=O)O)cc1NC(=O)Nc1ccc(Cl)cc1F)C1CCOCC1 (single isomer, unassigned) [Example 566]",< 50 nM
10,"CCCN(c1ccc([C@@H](COC)CC(=O)O)cc1NC(=O)Nc1ccc(C#N)cc1)C1CCOCC1 (single isomer, unassigned) [Example 567]",< 50 nM
11,"CCCN(c1ccc([C@H](COC)CC(=O)O)cc1Nc1ccc(C#N)cc1)C1CCOCC1 (single isomer, unassigned) [Example 568]",< 5 nM
12,"CCCN(c1ccc([C@H](COC)CC(=O)O)cc1Nc1ccc2nc(C)sc2c1)C1CCOCC1 (single isomer, unassigned) [Example 570]",< 50 nM
13,"CCCN(c1ccc(C(COC)CC(=O)O)cc1Nc1ccc2c(c1)OC(F)(F)O2)C1CCOCC1 (single isomer, unassigned) [Example 571, 3-(3-((2,2-difluorobenzo[d][1,3]dioxol-5-yl)amino)-4-(propyl (tetrahydro-2H-pyran-4-yl)amino)phenyl)-4-methoxybutanoic acid]",< 5 nM
14,"CCCN(c1ccc([C@H](COC)CC(=O)O)cc1Nc1ccc(F)cc1)C1CCOCC1 (single isomer, unassigned) [Example 572]",< 50 nM
15,"CCCN(c1ccc([C@H](COC)CC(=O)O)cc1Nc1cnc(OCC2CC2)nc1)C1CCOCC1 (single isomer, unassigned) [Example 573]",< 50 nM
16,"CCCN(c1ccc([C@H](COC)CC(=O)O)cc1Nc1ccc(Cl)cc1)C1CCOCC1 (single isomer, unassigned) [Example 574]",< 5 nM
17,"CCCN(c1ccc([C@H](COC)CC(=O)O)cc1Nc1ccc(OC)nc1)C1CCOCC1 (single isomer, unassigned) [Example 575]",< 50 nM
18,"CCCN(c1ccc([C@H](COC)CC(=O)O)cc1NC(=O)Nc1ccc(Cl)cc1F)C1CCOCC1 (single isomer, unassigned) [Example 576]",< 50 nM
19,"CCCN(c1ccc([C@H](COC)CC(=O)O)cc1NC(=O)Nc1ccc(C#N)cc1)C1CCOCC1 (single isomer, unassigned) [Example 577]",> 50 nM
20,"CCN(c1ccc([C@@H](CC(=O)O)C(F)(F)F)cc1Nc1cnc(OC)nc1)C1CCOCC1 (single isomer, unassigned) [Example 601]",< 5 nM
21,"CCC(CC(=O)O)c1ccc(N2CCN(C(=O)OC(C)(C)C)CC2)c(Nc2ccc(C#N)cc2)c1 (single isomer, unassigned) [Example 674 Enantiomer 1, 3-(4-(4-(tert-Butoxycarbonyl)piperazin-1-yl)-3-((4-cyanophenyl)amino)phenyl)pentanoic acid]",< 50 nM

# The next lines start with the values.
row,IC50,SMILES
1,> 50 nM,"COCC(CC(=O)O)c1ccc(N2C[C@@H](C)O[C@@H](C)C2)c(Nc2ccc(Cl)cc2)c1 (single isomer, unassigned) [Example 603]"
2,> 50 nM,"COCC(CC(=O)O)c1ccc(N2C[C@@H](C)O[C@@H](C)C2)c(NC(=O)Nc2ccc(C#N)cc2)c1 (single isomer, unassigned) [Example 605 Diastereomer 1]"
3,> 50 nM,"COCC(CC(=O)O)c1ccc(N2C[C@@H](C)O[C@@H](C)C2)c(NC(=O)Nc2ccc(Cl)cc2F)c1 (single isomer, unassigned) [Example 606]"
4,< 50 nM,"CCN(c1ccc(C(C)CC(=O)O)cc1Nc1cnc(OC)nc1)C1CCOCC1 (single isomer, unassigned) [Example 620, 3-(4-(ethyl(tetrahydro-2H-pyran-4-yl)amino)-3-((2-methoxypyrimidin-5-yl)amino)phenyl)butanoic acid]"
5,< 50 nM,"CCCOc1ncc(Nc2cc(C(C)CC(=O)O)ccc2N(CC)C2CCOCC2)cn1 (single isomer, unassigned) [Example 621, 3-(4-(ethyl(tetrahydro-2H-pyran-4-yl)amino)-3-((2-propoxypyrimidin-5-yl)amino)phenyl)butanoic acid]"
6,> 50 nM,"CCN(c1ccc(C(C)CC(=O)O)cc1Nc1cnc(OC(C)C)nc1)C1CCOCC1 (single isomer, unassigned) [Example 622, 3-(4-(ethyl(tetrahydro-2H-pyran-4-yl)amino)-3-((2-isopropoxypyrimidin-5-yl)amino)phenyl)butanoic acid]"
7,> 50 nM,"CCOc1ccc(Nc2cc(C(C)CC(=O)O)ccc2N(CC)C2CCOCC2)nn1 (single isomer, unassigned) [Example 624, 3-(3-((6-ethoxypyridazin-3-yl)amino)-4-(ethyl (tetrahydro-2H-pyran-4-yl)amino)phenyl)butanoic acid]"
8,< 5 nM,"CCN(c1ccc(C(C)CC(=O)O)cc1Nc1ccc(C#N)cc1)C1CCOCC1 (single isomer, unassigned) [Example 625, 3-(3-((4-cyanophenyl)amino)-4-(ethyl(tetrahydro-2H-pyran-4-yl)amino)phenyl)butanoic acid]"
9,< 50 nM,"CCN(c1ccc(C(C)CC(=O)O)cc1Nc1cnc(OCC2CC2)nc1)C1CCOCC1 (single isomer, unassigned) [Example 626, 3-(3-((2-(cyclopropylmethoxy)pyrimidin-5-yl)amino)-4-(ethyl(tetrahydro-2H-pyran-4-yl)amino)phenyl)butanoic acid]"
10,< 5 nM,"CCN(c1ccc(C(C)CC(=O)O)cc1Nc1ccc(F)cc1)C1CCOCC1 (single isomer, unassigned) [Example 627, 3-(4-(ethyl(tetrahydro-2H-pyran-4-yl)amino)-3-((4-fluorophenyl)amino)phenyl) butanoic acid]"
11,< 5 nM,"CCN(c1ccc(C(C)CC(=O)O)cc1Nc1ccc2c(c1)OC(F)(F)O2)C1CCOCC1 (single isomer, unassigned) [Example 628, 3-(3-((2,2-difluorobenzo[d] [1,3]dioxol-5-yl)amino)-4-(ethyl(tetrahydro-2H-pyran-4-yl)amino)phenyl)butanoic acid]"
12,< 50 nM,"CCN(c1ccc(C(C)CC(=O)O)cc1Nc1ccc2nc(C)sc2c1)C1CCOCC1 (single isomer, unassigned) [Example 629, 3-(4-(ethyl(tetrahydro-2H-pyran-4-yl)amino)-3-((2-methylbenzo[d]thiazol-6-yl)amino)phenyl)butanoic acid]"
13,< 50 nM,"CCOc1cnc(Nc2cc(C(C)CC(=O)O)ccc2N(CC)C2CCOCC2)cn1 (single isomer, unassigned) [Example 630, 3-(3-((5-ethoxypyrazin-2-yl)amino)-4-(ethyl (tetrahydro-2H-pyran-4-yl)amino)phenyl)butanoic acid]"
14,< 50 nM,"CCOc1ccc(Nc2cc(C(C)CC(=O)O)ccc2N(CC)C2CCOCC2)nn1 (single isomer, unassigned) [Example 631, 3-(3-((6-ethoxypyridazin-3-yl)amino)-4-(ethyl (tetrahydro-2H-pyran-4-yl)amino)phenyl)butanoic acid]"
15,< 50 nM,"CCOc1ncc(Nc2cc(C(C)CC(=O)O)ccc2N(CC)C2CCOCC2)cn1 (single isomer, unassigned) [Example 632, 3-(3-((2-ethoxypyrimidin-5-yl)amino)-4-(ethyl (tetrahydro-2H-pyran-4-yl)amino)phenyl)butanoic acid]"
16,> 50 nM,"CCC(CC(=O)O)c1ccc(N2CCN(C(=O)OC)CC2)c(Nc2ccc(C#N)cc2)c1 (single isomer, unassigned) [Example 668 Enantiomer 1, 3-(3-((4-Cyanophenyl)amino)-4-(4-(methoxycarbonyl)piperazin-1-yl)phenyl)pentanoic acid]"
17,> 50 nM,"CCOc1ncc(Nc2cc(C(CC)CC(=O)O)ccc2N2CCN(C(=O)OC)CC2)cn1 (single isomer, unassigned) [Example 669, 3-(3-((2-Ethoxypyrimidin-5-yl)amino)-4-(4-(methoxycarbonyl)piperazin-1-yl)phenyl)pentanoic acid]"
18,> 50 nM,"CCC(CC(=O)O)c1ccc(N2CCNCC2)c(Nc2ccc(C#N)cc2)c1 (single isomer, unassigned) [Example 671 Enantiomer 1, 3-(3-((4-Cyanophenyl)amino)-4-(piperazin-1-yl)phenyl)pentanoic acid]"
19,> 50 nM,"CCOc1ncc(Nc2cc(C(CC)CC(=O)O)ccc2N2CCNCC2)cn1 (single isomer, unassigned) [Example 672, 3-(3-((2-Ethoxypyrimidin-5-yl)amino)-4-(piperazin-1-yl)phenyl)pentanoic acid]"
